Among the data in publication PMC6379637, “Consecutive influenza surveillance of neuraminidase mutations and neuraminidase inhibitor resistance in Japan” (Influenza and Other Respiratory Viruses, 2019) are IC50 values, retold here.

For assay [1], the target named is influenza B neuraminidase. In kind it is biochemical, influenza B virus. Conditions: read-out: IC50.
In assay [2] the target is A/H1N1pdm09 neuraminidase. In kind it is biochemical, influenza A/H1N1pdm09 virus. Conditions: read-out: IC50.

“And” between values parts separate entries of the source, which are not always exact repeats. Equal entries are not always repeated.

`CCOC(=O)C1=C[C@@H](OC(CC)CC)[C@H](NC(C)=O)[C@@H](N)C1` [Oseltamivir, oseltamivir phosphate]: in assay [1], the IC50 (commonly the concentration that inhibits the measured activity by half) stood at 14 nM.

Take `CCC(CC)[C@H](NC(C)=O)[C@@H]1[C@H](O)[C@@H](C(=O)O)C[C@H]1N=C(N)N` [Peramivir, peramivir hydrate]: the IC50 in assay [2] is 0.45 nM and 0.65 nM and 0.26 nM.
